Source: paper PMC5447729 (Frontiers in Pharmacology, 2017)
Where two headings read alike, the source gives them in different places.

Assays:
DIO mice = assay: Three-week oral treatment of insulin-resistant DIO mice (OGTT, FBG, serum factors, organ indices, liver lipids, histology); type: in vivo; conditions: for body weight and WAT: RSG 10 mg kg−1, INT131 30 mg kg−1; for serum adiponectin / serum pro-inflammatory cytokines MCP-1 and IL-6: multiplex detection; for morphology of hepatocyte and hepatic lipid content: vs vehicle-treated
Description: All animal experiments were performed according to procedures approved by the Animal Experimentation Ethics Committee of the Beijing Institute of Pharmacology and Toxicology for animal care, handling and termination. Eight-week-old male homozygous C57BLKS/J db/db mice were obtained from the Model Animal Research Centre of Nanjing University (Nanjing, China) and fed a standard mouse diet. Male C57BL/6 mice (4 weeks old) were obtained from the Laboratory Animal Centre of the Beijing Institute of Pharmacology and Toxicology and fed a high-fat, high-sugar diet for 16 weeks to induce diet-induced obesity (DIO). […] Compounds were dissolved in DMSO and suspended in 0.5% carboxymethylcellulose. Body weight (BW) and fasting blood glucose were recorded regularly during the treatment period. After 14 d of treatment, db/db mice were subjected to insulin tolerance tests (ITT) and fasted for 6 h prior to the intraperitoneal (i.p.) injection of 1 U kg^−1 insulin, and blood glucose was estimated at the indicated time points. […] Blood glucose was monitored at 0, 30, 60, 90, and 120 min after the oral administration of 1 g kg^−1 dextrose. […] Interscapular brown adipose tissue (iBAT), epididymal white adipose tissue (eWAT), subcutaneous inguinal white adipose tissue (sWAT), liver and skeletal muscle were excised, weighed and rapidly frozen in liquid nitrogen for subsequent gene expression and western blot analysis.
(§1) Serum triglyceride (TG), cholesterol, free fatty acid (FFA), and glucose levels were measured by using commercial kits (Nanjing Jiancheng Bioengineering Institute, Nanjing, China) according to the manufacturer's instructions. Serum adiponectin, monocyte chemotactic protein 1(MCP1), Interleukin-6 (IL-6), Receptor activator of nuclear factor kappa-B ligand (RANKL), and Adrenocorticotropic Hormone (ACTH) were quantified using a multiplex Luminex assay (Millipore/Linco Research).
To determine TG and total cholesterol levels in the liver, 50 mg of frozen tissue was homogenized with a TissueLyserII (Qiagen, Germantown, MD, USA) in 1 ml of chloroform/methanol (2:1, v/v), after which 200 μL of 0.05 M KCl was added, and the solution was centrifuged at 5,000 rpm for 10 min. The aqueous phase was removed, and the organic phase was filtered and dried by nitrogen flushing. After evaporation of the chloroform under nitrogen, lipid samples were resuspended in isopropyl alcohol, and TG and total cholesterol content were determined with enzymatic assays.
sWAT, iBAT, and liver samples were fixed, embedded in paraffin and sectioned. Sections were cut at a thickness of […] and stained with haematoxylin/eosin (HE). Liver sections as well as adipose sections from at least 3 mice per group were also stained with HE. Adipocyte (n = 100 adipocytes) diameter was measured using Image J software, and the average diameter was recorded for each animal.

[1] = tested on: diabetic Zucker (fa/fa) fatty rats; parameters: method as in prior studies in rodents; conditions: 3 mg kg−1 day−1 INT131 vs 1 mg kg−1 RSG, ref prior studies in rodents; cited from earlier work
PPARγ target genes = assay: Real-time PCR gene expression in tissues of treated DIO and db/db mice; type: in vivo; conditions: for expression of BAT marker genes (Ucp1, Cidea, Elove3, Cox7a, Cox8b) and adipogenesis and lipogenesis genes (aP2, adiponectin, Lpl, Cd36) in BAT: more pronounced in the INT131 group; for expression of adipogenesis and fatty acid metabolism genes in sWAT and eWAT / levels of macrophage markers Cd68 and F4/80, pro-inflammatory cytokines IL-6 and TNFα and chemokine Mcp1 / Ucp1, Elove3 and aP2 gene expression in skeletal muscle: DIO and db/db mice; for expression of adipogenesis and fatty acid metabolism genes in sWAT and eWAT / levels of macrophage markers Cd68 and F4/80, pro-inflammatory cytokines IL-6 and TNFα and chemokine Mcp1: sWAT and eWAT
Description: Total RNA was isolated from tissues with a High-Purity Total RNA Extraction Kit (BioTeke Corporation, Beijing, China) according to the manufacturer's instructions. RNA was reverse-transcribed into cDNA with a High Capacity cDNA Reverse Transcription Kit (Transgenes Corporation, Beijing, China). Real-time PCR was carried out on an ABI 7300 Real-time PCR System (Applied Biosystems, Foster City, CA, USA) using SYBR Green PCR Master Mix (Roche Molecular Biochemicals, Mannheim, Germany). Relative gene expression levels were normalized to the β-actin gene and quantified by using the 2^−ΔΔCt method. Primer sequences are listed in (Supplementary Table 1).

C2C12 cells = assay: Conversion of myogenic C2C12 cells to adipocytes (gene expression); type: cell-based; conditions: 10 μM for 5 d after confluence, in the same manner as RSG
[2] = tested on: mouse 3T3-L1 preadipocytes; assay: Differentiation of mouse 3T3-L1 preadipocytes; type: cell-based; conditions: we and others (Motani et al., 2009)
[3] = RSG and INT131 concentrations in plasma and tissue after a single oral dose (UHPLC-MS/MS); type: in vivo, DIO mice; conditions: for Tmax: C57BL/6, mouse, po, 30 mg/kg, read-out: time of peak concentration; for average residency time: blood concentration-time profile, pre-test, single oral gavage RSG 10 mg kg−1 or INT131 30 mg kg−1
db/db mice = assay: Three-week oral treatment of diabetic db/db mice (FBG, ITT, serum parameters, organ indices); type: in vivo
Description: All animal experiments were performed according to procedures approved by the Animal Experimentation Ethics Committee of the Beijing Institute of Pharmacology and Toxicology for animal care, handling and termination. Eight-week-old male homozygous C57BLKS/J db/db mice were obtained from the Model Animal Research Centre of Nanjing University (Nanjing, China) and fed a standard mouse diet. Male C57BL/6 mice (4 weeks old) were obtained from the Laboratory Animal Centre of the Beijing Institute of Pharmacology and Toxicology and fed a high-fat, high-sugar diet for 16 weeks to induce diet-induced obesity (DIO). […] Body weight (BW) and fasting blood glucose were recorded regularly during the treatment period. […] Blood glucose was monitored at 0, 30, 60, 90, and 120 min after the oral administration of 1 g kg^−1 dextrose. […]
as §1

PRDM16 = assay: Western blot of PRDM16 protein in sWAT of treated mice; type: in vivo; conditions: DIO and db/db mice
Excerpt: To obtain tissue lysates, eWAT and sWAT were homogenized in 10% sodium dodecyl sulfate buffer containing protease and phosphatase inhibitors. An antibody targeting PR domain containing 16 (PRDM16) (Abcam) was used for western blotting. Bands were detected with ECL enhanced chemiluminescence detection reagents (Applygen, Beijing, China) and scanned with an Alpha Imager 5500 (Alpha Innotech, San Leandro, CA, USA) imaging densitometer.

[4] = all assayed tissues, DIO mice, RSG 10 mg kg−1 oral

| Structure (SMILES) | body weight and WAT (DIO mice) | serum adiponectin (DIO mice) | serum pro-inflammatory cytokines MCP-1 and IL-6 (DIO mice) | sizes of expanded adipocytes in the sWAT (DIO mice; HE staining) | morphology of hepatocyte and hepatic lipid content (DIO mice) | expression of BAT marker genes (Ucp1, Cidea, Elove3, Cox7a, Cox8b) and adipogenesis and lipogenesis genes (aP2, adiponectin, Lpl, Cd36) in BAT (PPARγ target genes; DIO mice) | expression of adipogenesis and fatty acid metabolism genes in sWAT and eWAT (PPARγ target genes) | levels of macrophage markers Cd68 and F4/80, pro-inflammatory cytokines IL-6 and TNFα and chemokine Mcp1 (PPARγ target genes) | Ucp1, Elove3 and aP2 gene expression in skeletal muscle (PPARγ target genes) | average residency time [3] [h] | PRDM16 protein levels in sWAT (PRDM16) | further results |
| --- | --- | --- | --- | --- | --- | --- | --- | --- | --- | --- | --- | --- |
| O=S(=O)(Nc1cc(Cl)c(Oc2cnc3ccccc3c2)c(Cl)c1)c1ccc(Cl)cc1Cl [INT131, 2,4-dichloro-N-[3,5-dichloro-4-(quinolin-3-yloxy)phenyl] benzene sulfonamide] | no impact | equal elevation | decreased levels | markedly decreased | no impact | substantially up-regulation | similarly up-regulated | comparably reduced | enhanced | 4.4 ± 1.17 | markedly increased | hepatic weight (DIO mice; 30 mg kg−1 INT131): did not induce an increase; brown adipocyte hypertrophy (adipocyte size and area in BAT) (DIO mice; BAT, HE staining): more severe brown adipocyte hypertrophy; blood glucose lowering effects compared with RSG [1]: identical; Cd36 expression in the liver (PPARγ target genes; liver, DIO mice): only slightly induced an increase; expression of aP2, adiponectin and cidec in the liver (PPARγ target genes; liver, DIO mice): did not induce; induction of adipsin and cidea in the liver compared with RSG (PPARγ target genes; liver, DIO mice): to a lesser degree; switch of myogenic cells to adipocytes (adipogenesis and myogenesis gene expression) (C2C12 cells): able to switch myogenic cells to adipocytes; promoting the differentiation of preadipocytes, compared with RSG [2]: weaker effects; Tmax ([3]; plasma and liver): 0.5 h; Tmax ([3]; skeletal muscle, eWAT, sWAT, BAT): 4 h; body weight gain compared with RSG (db/db mice; 10 and 30 mg kg−1 INT131 vs 10 mg kg−1 RSG): equal body weight gains; fasting blood glucose (FBG) (db/db mice; INT131 10 or 30 mg kg−1 by gavage once daily, within 1 week of treatment): lowered fasting blood glucose (FBG) in a dose-dependent manner |
| CN(CCOc1ccc(CC2SC(=O)NC2=O)cc1)c1ccccn1 (stereo not shown) [RSG, 5-[[4-[2-[methyl(pyridin-2-yl)amino]ethoxy]phenyl]methyl]-1,3-thiazolidine-2,4-dione] | no impact | equal elevation | decreased levels | markedly decreased | dramatically aggravated hepatic hypertrophy and increased lipid accumulation | substantially up-regulation | similarly up-regulated | comparably reduced | enhanced | 4.03 ± 0.83 | markedly increased | expression of adipocyte-specific genes aP2, adipsin, adiponectin, cidea and cidec in the liver (PPARγ target genes; liver, DIO mice): robustly up-regulated; expression of genes of lipogenesis (Acc) and fatty acid uptake (Cd36) in the liver (PPARγ target genes; liver, DIO mice): dramatically stimulated; expression of the key gluconeogenesis gene (Pepck) in the liver (PPARγ target genes; liver, DIO mice): inhibited; expression of fatty acid oxidation genes Cpt1b and Pdk4 in the liver (PPARγ target genes; liver, DIO mice, RSG rather than INT131): marked up-regulation; time of peak concentration (Cmax) [3, 4]: 0.5 h; tissue concentration by 12 h [3, 4]: almost negligible |
